Measurements published in patent publication US4882326A, “Piperidine compounds and pharmaceutical uses thereof” (Yoshitomi Pharmaceutical Industries, Ltd., priority 1987, dated 1989).
pIC50: −log10 of the molar value.

Columns and labels:
[1] = test system: angiotensin I-induced pressor response; assay: Effect on angiotensin I-induced pressor response in rats; assay type: in vivo, Wistar male rats; settings: 10 mg/kg, p.o.; for Inhibitory rate (%) of pressor response to angiotensin I at each hour: angiotensin I 300 ng/kg i.v., mean value±standard error
Procedure: Experiment 2: Effect on angiotensin I-induced pressor response in rats
Groups of 10 Wistar male rats weighing about 200 g were implanted with a catheter into the left carotid artery and femoral vein under ether anesthesia. More than 24 hours after operation, mean blood pressure was measured from the carotid artery with a pressure transducer (Nippon Denki San-ei, 142 type). Angiotensin I (300 ng/kg) was injected to the left femoral vein through catheter to induce pressor response. Then 10 mg/kg of the test compounds, suspended in 0.5% methylcellulose solution, were given orally. At every hour between 1 to 10 hours, and 24 hours after the administration, the pressor response was examined by the injection of angiotensin I. The inhibitory rate (%) against the pressor responses was determined and the results were summarized in Table 1. The values in the Table represent "mean value±standard error".

[2] = molecular target: T1, angiotensin I converting enzyme (Cavia porcellus, UniProt H0UWL7); assay: Inhibitory effect on angiotensin I-induced constriction in isolated guinea pig ileum (indirect inhibition of angiotensin I converting enzyme); assay type: cell-based; settings: angiotensin I 10^-8 M, 37° C.
T1 construct: isolated guinea pig ileum preparation; from tissue; host or cells: isolated guinea pig ileum
T1 sequence (H0UWL7 33-1302): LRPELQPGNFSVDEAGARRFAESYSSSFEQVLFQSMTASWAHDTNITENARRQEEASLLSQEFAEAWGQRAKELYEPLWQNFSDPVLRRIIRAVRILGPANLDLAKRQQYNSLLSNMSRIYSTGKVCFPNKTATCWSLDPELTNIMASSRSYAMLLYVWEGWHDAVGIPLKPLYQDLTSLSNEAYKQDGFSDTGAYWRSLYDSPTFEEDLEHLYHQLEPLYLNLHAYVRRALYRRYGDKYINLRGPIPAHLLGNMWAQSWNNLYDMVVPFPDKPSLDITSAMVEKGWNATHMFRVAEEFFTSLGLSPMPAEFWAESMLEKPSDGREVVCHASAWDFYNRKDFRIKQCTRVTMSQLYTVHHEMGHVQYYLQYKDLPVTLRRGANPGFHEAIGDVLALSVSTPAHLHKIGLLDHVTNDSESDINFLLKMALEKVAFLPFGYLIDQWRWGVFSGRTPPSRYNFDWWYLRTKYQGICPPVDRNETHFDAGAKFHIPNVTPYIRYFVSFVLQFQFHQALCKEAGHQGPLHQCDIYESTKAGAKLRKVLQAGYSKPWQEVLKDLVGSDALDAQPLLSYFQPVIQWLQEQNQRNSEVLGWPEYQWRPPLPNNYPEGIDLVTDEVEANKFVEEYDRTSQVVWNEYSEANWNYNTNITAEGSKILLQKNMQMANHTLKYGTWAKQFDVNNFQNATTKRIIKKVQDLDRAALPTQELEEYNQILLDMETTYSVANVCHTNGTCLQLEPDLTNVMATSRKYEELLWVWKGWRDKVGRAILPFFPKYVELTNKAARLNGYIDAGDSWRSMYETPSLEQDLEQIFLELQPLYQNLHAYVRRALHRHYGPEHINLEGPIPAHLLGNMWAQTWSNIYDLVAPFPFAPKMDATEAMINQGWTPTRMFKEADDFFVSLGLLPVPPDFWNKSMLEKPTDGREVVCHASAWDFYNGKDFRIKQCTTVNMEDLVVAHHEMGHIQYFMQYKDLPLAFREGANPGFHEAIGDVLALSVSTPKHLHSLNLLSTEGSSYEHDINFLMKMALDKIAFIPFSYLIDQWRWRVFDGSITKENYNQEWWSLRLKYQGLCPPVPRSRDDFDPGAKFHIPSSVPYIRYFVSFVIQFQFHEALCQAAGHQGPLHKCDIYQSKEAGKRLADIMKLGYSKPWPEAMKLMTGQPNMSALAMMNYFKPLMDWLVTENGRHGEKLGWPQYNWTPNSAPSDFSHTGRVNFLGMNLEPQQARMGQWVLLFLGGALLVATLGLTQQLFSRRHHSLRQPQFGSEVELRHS
Source text: Experiment 1: Inhibitory effect on angiotensin I-induced constriction in isolated guinea pig ileum
According to the method of Goldberg et al (J. Pharmacol. Exp. Ther., vol. 204, No. 2, p. 271, 1977), the inhibitory effect on angiotensin I converting enzyme was indirectly examined as an antagonistic activity on angiotensin I-induced constriction in isolated guinea pig ileum preparation. Guinea pig ileum preparations, in the presence of 1 g load, were suspended in Magnus bath filled with Kreb's solution containing atropine and maintained at 37° C. by warming, and then bubbled with a mixed gas (95%O2 +5%CO2). Angiotensin I (10^-8 M)-induced constrictions were measured with a recorder through a force displacement transducer (Nippon Denki San-ei, 45169A). Inhibitory rates of the test compounds were indicated on a graph and the rate of 50% inhibition (IC50) was calculated.

O=C(O)CN1C(=O)[C@@H](N[C@@H](CCCCC2CCNCC2)C(=O)O)CSc2ccccc21 [CV-5975, 3(R)-[1(S)-carboxy-5-(4-piperidyl)pentyl]amino-4-oxo-2,3,4,5-tetrahydro-1,5-benzothiazepine-5-acetic acid, reference compound]
Inhibitory rate (%) of pressor response to angiotensin I at each hour ([1]; 1 hour): -95 ± 3%
Inhibitory rate (%) of pressor response to angiotensin I at each hour ([1]; 2 hours): -95 ± 3%
Inhibitory rate (%) of pressor response to angiotensin I at each hour ([1]; 3 hours): -89 ± 7%
Inhibitory rate (%) of pressor response to angiotensin I at each hour ([1]; 4 hours): -85 ± 7%
Inhibitory rate (%) of pressor response to angiotensin I at each hour ([1]; 5 hours): -82 ± 8%
Inhibitory rate (%) of pressor response to angiotensin I at each hour ([1]; 6 hours): -89 ± 6%
Inhibitory rate (%) of pressor response to angiotensin I at each hour ([1]; 7 hours): -86 ± 6%
Inhibitory rate (%) of pressor response to angiotensin I at each hour ([1]; 8 hours): -80 ± 7%
Inhibitory rate (%) of pressor response to angiotensin I at each hour ([1]; 9 hours): -84 ± 7%
Inhibitory rate (%) of pressor response to angiotensin I at each hour ([1]; 10 hours): -75 ± 9%
Inhibitory rate (%) of pressor response to angiotensin I at each hour ([1]; 24 hours): -45 ± 10%
pIC50 [2]: 8.46

O.O=C(O)CN1C(=O)C(N[C@@H](CSCCC2CCNCC2)C(=O)O)CCc2ccccc21 (stereo partly drawn) [Example 7, 3-[1(R)-carboxy-2-{2-(4-piperidyl)ethylthio}ethyl]amino-2-oxo-2,3,4,5-tetrahydro-1H-1-benzazepine-1-acetic acid monohydrate]
inhibitory action against the angiotensin I-induced pressor response, strength and duration vs CV-5975 ([1]; rats, comparison in words): exhibits stronger inhibitory action against the angiotensin I-induced pressor response and more long-lasting effect than C-5975
Inhibitory rate (%) of pressor response to angiotensin I at each hour ([1]; 1 hour): -96 ± 2%
Inhibitory rate (%) of pressor response to angiotensin I at each hour ([1]; 2 hours): -100 ± 0%
Inhibitory rate (%) of pressor response to angiotensin I at each hour ([1]; 3 hours): -94 ± 5%
Inhibitory rate (%) of pressor response to angiotensin I at each hour ([1]; 4 hours): -97 ± 3%
Inhibitory rate (%) of pressor response to angiotensin I at each hour ([1]; 5 hours): -100 ± 0%
Inhibitory rate (%) of pressor response to angiotensin I at each hour ([1]; 6 hours): -100 ± 0%
Inhibitory rate (%) of pressor response to angiotensin I at each hour ([1]; 7 hours): -100 ± 0%
Inhibitory rate (%) of pressor response to angiotensin I at each hour ([1]; 8 hours): -98 ± 2%
Inhibitory rate (%) of pressor response to angiotensin I at each hour ([1]; 9 hours): -100 ± 0%
Inhibitory rate (%) of pressor response to angiotensin I at each hour ([1]; 10 hours): -90 ± 6%
Inhibitory rate (%) of pressor response to angiotensin I at each hour ([1]; 24 hours): -77 ± 10%
pIC50 [2]: 8.80
